Experimental data published in ChEMBL document CHEMBL1201862, “PubChem BioAssay data set” (2004).
Each block holds one molecule with its values, some of them ahead of it. The source made the active and inactive calls.

What was measured:
[1] = molecular target: T1, G-protein coupled receptor 55 (Homo sapiens, UniProt Q9Y2T6); assay: GPR55 antagonists blocking LPI-driven arrestin recruitment, primary screen, imaging, U2OS, beta-arrestin-GFP, LPI agonist (AID 2013); type: functional;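 note: antagonist potency measured as reduced agonist-driven arrestin aggregation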
[2] = molecular target: T2, Cannabinoid receptor 1 (Homo sapiens, UniProt P21554); assay: SAR analysis of antagonists of the Cannabinoid Receptor 1 using an Image-Based Assay - Set 2. [Related pubchem assays (depositor defined):AID2013, AID2026]; type: functional
[3] = molecular target: T3, G-protein coupled receptor 35 (Homo sapiens, UniProt Q9HC97); assay: SAR analysis of Agonists of the GPR35 Receptor using an Image-Based Assay - Set 2. [Related pubchem assays (depositor defined):AID2013, AID2026]; type: functional
[4] = molecular target: T4, Cannabinoid receptor 2 (Homo sapiens, UniProt P34972); assay: SAR analysis of antagonists of the Cannabinoid Receptor 2 using an Image-Based Assay. [Related pubchem assays (depositor defined):AID2013, AID2026]; type: functional
[5] = molecular target: T2, Cannabinoid receptor 1; assay: SAR analysis of agonists of the Cannabinoid Receptor 1 using an Image-Based Assay - Set 2. [Related pubchem assays (depositor defined):AID2013, AID2026]; type: functional
[6] = molecular target: T3, G-protein coupled receptor 35; assay: SAR analysis of Antagonists of the GPR35 Receptor using an Image-Based Assay - Set 3. [Related pubchem assays (depositor defined):AID2013, AID2026]; type: functional
[7] = molecular target: T1, G-protein coupled receptor 55; assay: GPR55 antagonist potency of analogs, SAR follow-up, imaging, U2OS, beta-arrestin-GFP, LPI agonist, set 2 (AID 2820); type: functional
[8] = molecular target: T4, Cannabinoid receptor 2; assay: SAR analysis of agonists of the Cannabinoid Receptor 2 using an Image-Based Assay. [Related pubchem assays (depositor defined):AID2013, AID2026]; type: functional
[9] = molecular target: T5, E3 ubiquitin-protein ligase XIAP (Homo sapiens, UniProt P98170); assay: SAR analysis of Antagonists of XIAP-Bir3 domain of IAP-family anti-apoptotic proteins. [Related pubchem assays (depositor defined):AID1018, AID1449, AID1513, AID1514, AID1638]
[10] = molecular target: T5, E3 ubiquitin-protein ligase XIAP; assay: SAR analysis of Antagonists of IAP-family anti-apoptotic proteins. [Related pubchem assays (depositor defined):AID1018, AID1449, AID1513, AID1514, AID1638]
[11] = molecular target: T3, G-protein coupled receptor 35; assay: SAR analysis of Agonists of the GPR35 Receptor using an Image-Based Assay - Set 4. [Related pubchem assays (depositor defined):AID2013, AID2026]; type: functional
[12] = molecular target: T2, Cannabinoid receptor 1; assay: SAR analysis of agonists of the Cannabinoid Receptor 1 using an Image-Based Assay - Set 4. [Related pubchem assays (depositor defined):AID2013, AID2026]; type: functional
[13] = molecular target: T3, G-protein coupled receptor 35; assay: SAR analysis of Antagonists of the GPR35 Receptor using an Image-Based Assay - Set 6. [Related pubchem assays (depositor defined):AID2013, AID2026]; type: functional
[14] = molecular target: T2, Cannabinoid receptor 1; assay: SAR analysis of antagonists of the Cannabinoid Receptor 1 using an Image-Based Assay - Set 4. [Related pubchem assays (depositor defined):AID2013, AID2026]; type: functional
[15] = molecular target: T1, G-protein coupled receptor 55; assay: SAR Analysis of Selective Antagonists of GPR55 using an Image-Based Assay - Set 4. [Related pubchem assays (depositor defined):AID2013, AID2026]; type: functional
[16] = molecular target: T4, Cannabinoid receptor 2; assay: SAR analysis of antagonists of the Cannabinoid Receptor 2 using an Image-Based Assay - Set 3. [Related pubchem assays (depositor defined):AID2013, AID2026]; type: functional
[17] = molecular target: T4, Cannabinoid receptor 2; assay: SAR analysis of agonists of the Cannabinoid Receptor 2 using an Image-Based Assay - Set 3. [Related pubchem assays (depositor defined):AID2013, AID2026]; type: functional
[18] = molecular target: T6, Kappa-type opioid receptor (Homo sapiens, UniProt P41145); assay: SAR analysis of small molecule antagonists of the kappa opioid receptor via a luminescent beta-arrestin assay - Set 4. [Related pubchem assays (depositor defined):AID1777, AID1778, AID1785, AID1786, AID1966, AID2133, AID2136, AID2285]; type: functional
[19] = molecular target: T6, Kappa-type opioid receptor; assay: SAR analysis of small molecule antagonists of the kappa opioid receptor via a luminescent beta-arrestin assay - Set 5. [Related pubchem assays (depositor defined):AID1778, AID1785]; type: functional
[20] = molecular target: T7, Tyrosine-protein phosphatase non-receptor type 22 (Homo sapiens, UniProt Q9Y2R2); assay: SAR LYP1 Fluorescent Assay using pCAP substrate for In Vitro dose response studies - Set 2. [Related pubchem assays (depositor defined):AID1779, AID1784, AID2135, AID449727]; type: functional
T7 sequence (Q9Y2R2 whole entry): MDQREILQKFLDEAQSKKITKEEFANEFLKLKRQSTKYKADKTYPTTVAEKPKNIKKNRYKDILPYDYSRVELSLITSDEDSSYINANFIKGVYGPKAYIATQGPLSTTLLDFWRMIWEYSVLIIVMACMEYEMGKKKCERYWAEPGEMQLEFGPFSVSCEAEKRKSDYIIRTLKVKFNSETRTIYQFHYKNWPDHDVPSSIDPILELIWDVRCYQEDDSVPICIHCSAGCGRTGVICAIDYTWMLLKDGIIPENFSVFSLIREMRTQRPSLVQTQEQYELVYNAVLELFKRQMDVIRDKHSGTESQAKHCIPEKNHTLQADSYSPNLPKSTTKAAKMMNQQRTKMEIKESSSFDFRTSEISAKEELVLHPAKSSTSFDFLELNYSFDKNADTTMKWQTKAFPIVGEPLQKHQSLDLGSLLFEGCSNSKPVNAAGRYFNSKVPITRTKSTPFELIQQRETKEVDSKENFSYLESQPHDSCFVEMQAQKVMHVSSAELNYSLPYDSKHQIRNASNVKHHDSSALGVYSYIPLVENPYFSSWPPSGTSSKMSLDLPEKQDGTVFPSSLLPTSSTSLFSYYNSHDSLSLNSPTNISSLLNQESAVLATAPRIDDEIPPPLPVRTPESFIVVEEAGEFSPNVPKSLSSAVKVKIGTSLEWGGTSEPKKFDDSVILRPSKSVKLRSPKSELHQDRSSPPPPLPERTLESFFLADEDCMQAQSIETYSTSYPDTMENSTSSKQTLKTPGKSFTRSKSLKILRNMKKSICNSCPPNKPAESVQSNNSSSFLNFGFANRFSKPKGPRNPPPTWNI

[21] = molecular target: Tyrosine-protein phosphatase non-receptor type 12 (Homo sapiens, UniProt Q05209); assay: SAR Selectivity Analysis of small molecule inhibitors of PEST using pCAP in a fluorescence assay. [Related pubchem assays (depositor defined):AID1779, AID1784, AID2135]; type: functional
[22] = molecular target: T7, Tyrosine-protein phosphatase non-receptor type 22; assay: SAR LYP1 Fluorescent Assay using OMFP substrate for In Vitro dose response studies - Set 3. [Related pubchem assays (depositor defined):AID1779, AID1784, AID2140, AID2686]; type: functional
[23] = molecular target: T8, Tyrosine-protein phosphatase non-receptor type 7 (Homo sapiens, UniProt P35236); assay: HePTP (PTPN7) phosphatase inhibitor potency, SAR follow-up, biochemical, set 2 (AID 449736); type: functional
T8 sequence (P35236 whole entry): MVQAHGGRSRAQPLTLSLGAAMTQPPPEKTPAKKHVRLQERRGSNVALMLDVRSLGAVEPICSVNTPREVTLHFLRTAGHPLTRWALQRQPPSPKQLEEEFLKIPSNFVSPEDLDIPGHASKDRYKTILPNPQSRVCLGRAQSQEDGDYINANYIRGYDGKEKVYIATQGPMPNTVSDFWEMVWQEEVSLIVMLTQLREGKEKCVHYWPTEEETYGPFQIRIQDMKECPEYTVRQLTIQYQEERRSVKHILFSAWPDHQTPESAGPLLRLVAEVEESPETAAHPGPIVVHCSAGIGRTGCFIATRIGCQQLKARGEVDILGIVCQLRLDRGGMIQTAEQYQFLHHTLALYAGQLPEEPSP

[24] = molecular target: T7, Tyrosine-protein phosphatase non-receptor type 22; assay: LYP (PTPN22) phosphatase inhibitor potency, SAR follow-up, biochemical, pCAP fluorogenic substrate, fluorescence, set 3 (AID 449727); type: functional
[25] = molecular target: T7, Tyrosine-protein phosphatase non-receptor type 22; assay: PubChem AID 2135
[26] = molecular target: T7, Tyrosine-protein phosphatase non-receptor type 22; assay: PubChem AID 2140
[27] = molecular target: T7, Tyrosine-protein phosphatase non-receptor type 22; assay: SAR LYP1 Fluorescent Assay using OMFP substrate for In Vitro dose response studies - Set 2. [Related pubchem assays (depositor defined):AID1779, AID1784, AID2140, AID449726, AID488869]; type: functional

T1 sequence (Q9Y2T6 whole entry): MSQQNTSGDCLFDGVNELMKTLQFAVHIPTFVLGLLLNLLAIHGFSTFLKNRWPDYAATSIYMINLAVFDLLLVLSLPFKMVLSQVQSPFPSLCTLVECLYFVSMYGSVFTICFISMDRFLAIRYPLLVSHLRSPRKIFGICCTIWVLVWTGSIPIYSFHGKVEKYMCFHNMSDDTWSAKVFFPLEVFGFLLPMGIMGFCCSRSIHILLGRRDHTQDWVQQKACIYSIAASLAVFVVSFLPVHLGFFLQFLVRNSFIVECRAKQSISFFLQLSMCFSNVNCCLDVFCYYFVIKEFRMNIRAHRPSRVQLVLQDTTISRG
T4 sequence (P34972 whole entry): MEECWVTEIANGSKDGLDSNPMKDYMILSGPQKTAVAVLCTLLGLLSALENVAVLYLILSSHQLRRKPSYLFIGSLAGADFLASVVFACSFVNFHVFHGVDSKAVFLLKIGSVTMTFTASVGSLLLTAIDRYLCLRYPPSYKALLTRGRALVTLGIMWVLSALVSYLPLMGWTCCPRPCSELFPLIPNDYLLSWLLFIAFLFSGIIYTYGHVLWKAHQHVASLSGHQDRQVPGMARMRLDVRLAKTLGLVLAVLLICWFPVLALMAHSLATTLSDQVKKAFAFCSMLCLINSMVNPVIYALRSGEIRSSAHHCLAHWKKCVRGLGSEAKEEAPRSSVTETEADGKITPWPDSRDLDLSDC
T2 sequence (P21554 whole entry): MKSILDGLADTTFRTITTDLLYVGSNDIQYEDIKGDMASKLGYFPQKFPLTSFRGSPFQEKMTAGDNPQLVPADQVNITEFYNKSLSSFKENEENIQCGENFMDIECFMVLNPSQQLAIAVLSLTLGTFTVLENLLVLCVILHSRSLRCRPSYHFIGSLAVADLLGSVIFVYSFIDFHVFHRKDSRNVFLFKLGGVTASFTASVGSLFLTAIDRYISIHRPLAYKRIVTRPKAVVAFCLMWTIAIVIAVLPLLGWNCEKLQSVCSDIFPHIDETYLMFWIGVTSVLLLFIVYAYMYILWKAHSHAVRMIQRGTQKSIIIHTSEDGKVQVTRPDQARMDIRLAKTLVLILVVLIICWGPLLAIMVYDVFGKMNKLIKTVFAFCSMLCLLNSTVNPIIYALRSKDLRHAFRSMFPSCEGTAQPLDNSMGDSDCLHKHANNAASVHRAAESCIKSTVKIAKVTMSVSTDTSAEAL
T3 sequence (Q9HC97 whole entry): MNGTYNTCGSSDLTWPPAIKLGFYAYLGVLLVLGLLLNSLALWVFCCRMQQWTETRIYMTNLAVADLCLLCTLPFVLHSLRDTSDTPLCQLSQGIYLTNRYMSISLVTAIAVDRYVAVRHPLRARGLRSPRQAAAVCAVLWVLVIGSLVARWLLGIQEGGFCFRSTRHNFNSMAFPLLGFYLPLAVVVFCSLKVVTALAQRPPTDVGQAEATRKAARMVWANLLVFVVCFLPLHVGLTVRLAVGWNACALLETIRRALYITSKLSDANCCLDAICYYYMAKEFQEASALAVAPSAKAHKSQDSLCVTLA
T6 sequence (P41145 whole entry): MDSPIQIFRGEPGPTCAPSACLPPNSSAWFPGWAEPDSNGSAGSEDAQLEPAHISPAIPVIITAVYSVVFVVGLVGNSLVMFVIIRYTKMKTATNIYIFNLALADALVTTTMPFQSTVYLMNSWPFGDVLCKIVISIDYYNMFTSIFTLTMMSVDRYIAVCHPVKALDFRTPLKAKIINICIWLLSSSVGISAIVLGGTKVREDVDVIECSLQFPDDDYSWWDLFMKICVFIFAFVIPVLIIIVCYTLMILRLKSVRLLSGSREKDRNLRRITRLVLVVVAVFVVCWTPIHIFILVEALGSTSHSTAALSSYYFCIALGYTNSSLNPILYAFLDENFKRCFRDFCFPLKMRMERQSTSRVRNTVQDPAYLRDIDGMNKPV
T5 sequence (P98170 whole entry, the tested form may be a part): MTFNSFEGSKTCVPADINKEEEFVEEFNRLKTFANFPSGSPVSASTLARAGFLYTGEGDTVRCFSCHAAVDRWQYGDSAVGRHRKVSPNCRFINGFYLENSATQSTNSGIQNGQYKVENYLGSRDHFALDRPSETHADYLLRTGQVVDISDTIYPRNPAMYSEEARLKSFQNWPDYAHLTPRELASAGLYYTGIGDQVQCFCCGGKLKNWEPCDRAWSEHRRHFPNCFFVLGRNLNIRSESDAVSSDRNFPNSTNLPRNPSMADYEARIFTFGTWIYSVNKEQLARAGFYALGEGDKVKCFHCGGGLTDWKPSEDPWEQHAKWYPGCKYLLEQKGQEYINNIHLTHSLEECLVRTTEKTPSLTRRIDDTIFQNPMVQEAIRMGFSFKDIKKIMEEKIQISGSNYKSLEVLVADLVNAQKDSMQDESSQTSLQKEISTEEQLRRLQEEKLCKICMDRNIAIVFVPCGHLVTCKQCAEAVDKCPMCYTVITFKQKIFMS
Chain of Tyrosine-protein phosphatase non-receptor type 12 (Q05209 whole entry): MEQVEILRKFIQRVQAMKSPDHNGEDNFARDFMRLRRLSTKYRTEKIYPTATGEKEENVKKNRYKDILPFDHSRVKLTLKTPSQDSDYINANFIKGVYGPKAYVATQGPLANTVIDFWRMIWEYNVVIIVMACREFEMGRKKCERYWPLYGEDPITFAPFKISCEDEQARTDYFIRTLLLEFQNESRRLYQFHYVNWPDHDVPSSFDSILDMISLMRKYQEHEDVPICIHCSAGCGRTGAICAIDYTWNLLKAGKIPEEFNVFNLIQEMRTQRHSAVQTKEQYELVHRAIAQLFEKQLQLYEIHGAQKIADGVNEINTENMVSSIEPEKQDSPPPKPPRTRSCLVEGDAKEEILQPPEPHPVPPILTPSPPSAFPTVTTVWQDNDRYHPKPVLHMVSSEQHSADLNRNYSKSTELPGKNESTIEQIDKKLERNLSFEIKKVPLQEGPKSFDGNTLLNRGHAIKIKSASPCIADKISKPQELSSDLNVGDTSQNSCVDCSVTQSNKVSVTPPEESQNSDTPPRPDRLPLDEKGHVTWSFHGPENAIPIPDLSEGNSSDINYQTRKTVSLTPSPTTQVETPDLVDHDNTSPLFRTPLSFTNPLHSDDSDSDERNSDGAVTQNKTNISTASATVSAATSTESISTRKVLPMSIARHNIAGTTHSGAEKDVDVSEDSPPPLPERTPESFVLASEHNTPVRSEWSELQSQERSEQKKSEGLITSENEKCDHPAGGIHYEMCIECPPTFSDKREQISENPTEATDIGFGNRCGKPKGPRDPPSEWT

Structure (SMILES): CCCCC1(Cc2ccc(OC)c([N+](=O)[O-])c2)C(=O)N(c2ccccc2)N(c2ccccc2)C1=O
IC50 [1]: 3.42 µM (active)
IC50 [2]: > 32 µM (inactive)
EC50 [3]: > 32 µM (inactive)
IC50 [4]: > 32 µM (inactive)
EC50 [5]: > 32 µM (inactive)
IC50 [6]: > 32 µM (inactive)
IC50 [7]: 1.81 µM (active)
EC50 [8]: > 32 µM (inactive)

Structure (SMILES): CN[C@@H](C)C(=O)N[C@H](C(=O)N1CCC[C@H]1C(=O)NNc1ccccc1)C(C)C
IC50 [9]: 2.9 µM (active)
IC50 [10]: 1.3 µM (active)

Structure (SMILES): CCNC(=O)c1cc2c(=O)n3ccccc3nc2n(C2CCCC2)c1=N
EC50 [11]: > 32 µM (inactive)
EC50 [12]: > 32 µM (inactive)
IC50 [13]: > 32 µM (inactive)
IC50 [14]: > 32 µM (inactive)
IC50 [15]: 29.7 µM (inactive)
IC50 [16]: > 32 µM (inactive)
EC50 [17]: 3.01 µM (active)

Now from value to molecule:

IC50 [18]: 2.49 µM (active)
IC50 [19]: 2.34 µM (active)
Structure (SMILES): Cc1ccccc1S(=O)(=O)NCc1ccc(C(=O)NCCN(Cc2ccccc2)C(C)C)cc1

IC50 [20]: 86.7 µM (active)
IC50 [21]: 21 µM (active)
IC50 [22]: 82.9 µM (active)
IC50 [23]: 3.65 µM (active)
IC50 [24]: > 100 µM (inactive)
IC50 [25]: > 100 µM (inactive)
IC50 [26]: > 100 µM (inactive)
IC50 [27]: 65.5 µM (active)
Structure (SMILES): N#C/C(=C/c1ccc(OCc2ccc(C(=O)O)cc2)cc1)c1cccc(F)c1
